Assay results as given in US20260364079A1 (Principia Biopharma Inc., priority 2022, published 2026).

Experiment: phase 1/2 study in relapsed/refractory ITP (NCT03395210), safety
Conditions: for Abdominal discomfort / Abdominal distension / Abdominal pain / Abnormal dreams / Akathisia / Alopecia / Anemia / Any TEAE / Arthralgia / Arthropod bite / Back pain / Conjunctival hemorrhage / Contusion / Costochondritis / Cough / Decreased appetite / Defecation urgency / Diarrhea / Dizziness / Dyspepsia / Dyspnea / Dyspnea exertional / Edema / Epigastric discomfort / Epistaxis / Erysipelas / Fatigue / Frequent bowel movements / Gingival bleeding / Headache / Heavy menstrual bleeding / Hypoesthesia / Hypophosphatemia / I lot flush / Ilypokalemia / Increased white blood cell count / Maculo-papular rash / Malaise / Micturition urgency / Muscle spasms / Myalgia / Nasal congestion / Nasopharyngitis / Nausea / Peripheral swelling / Petechiae / Pruritus / Purpura / Rash / Thrombocytopena / Upper abdominal pain / Upper respiratory tract infection / Urinary tract infection / Vomiting: TEAE any cause
Excerpt: The Safety Population was used for all safety analyses.
Pre-existing conditions that worsened during a study were reported as AEs.
Safety was graded per NCI CTCAE, version 4.0.

[1] = 45 patients initiating 400 mg bid
[2] = any cause, unrelated to rilzabrutinib treatment, patients
[3] = baseline through end of treatment

CC(C)(C=C(C#N)C(=O)N1CCC[C@@H](n2nc(-c3ccc(Oc4ccccc4)cc3F)c3c(N)ncnc32)C1)N1CCN(C2COC2)CC1 (mixture of isomers) [rilzabrutinib, (R)-2-[3-[4-amino-3-(2-fluoro-4-phenoxy-phenyl)pyrazolo[3,4-d]pyrimidin-1-yl]piperidine-1-carbonyl]-4-methyl-4-[4-(oxetan-3-yl)piperazin-1-yl]pent-2-enenitrile]
Rescue medication use (200 mg qd): 1 patient
Rescue medication use (300 mg bid, patients): 1
Rescue medication use (400 mg bid, patients): 5
dose reductions/interruptions due to adverse events [1]: no dose reductions/interruptions due to adverse events
dose-limiting toxicities [1]: no dose-limiting toxicities
tolerability (ITP patients): well-tolerated
treatment-related bleeding or thrombotic events (ITP patients): no reported treatment-related bleeding or thrombotic events
Abdominal discomfort (any grade): 1 (2) number of patients (percent)
Abdominal distension (any grade): 6 (10) number of patients (percent)
Abdominal pain (any grade): 3 (5) number of patients (percent)
Abnormal dreams (any grade): 1 (2) number of patients (percent)
Akathisia (any grade): 1 (2) number of patients (percent)
Alopecia (any grade): 2 (3) number of patients (percent)
Anemia (any grade): 4 (7) number of patients (percent)
Any TEAE (any grade): 48 (80) number of patients (percent)
Arthralgia (any grade): 5 (8) number of patients (percent)
Arthropod bite (any grade): 3 (5) number of patients (percent)
Back pain (any grade): 8 (13) number of patients (percent)
Conjunctival hemorrhage (any grade): 5 (8) number of patients (percent)
Contusion (any grade): 11 (18) number of patients (percent)
Costochondritis (any grade): 2 (3) number of patients (percent)
Cough (any grade): 2 (3) number of patients (percent)
Decreased appetite (any grade): 1 (2) number of patients (percent)
Defecation urgency (any grade): 1 (2) number of patients (percent)
Diarrhea (any grade): 22 (37) number of patients (percent)
Dizziness (any grade): 2 (3) number of patients (percent)
Dyspepsia (any grade): 4 (7) number of patients (percent)
Dyspnea (any grade): 2 (3) number of patients (percent)
Dyspnea exertional (any grade): 2 (3) number of patients (percent)
Edema (any grade): 2 (3) number of patients (percent)
Epigastric discomfort (any grade): 1 (2) number of patients (percent)
Epistaxis (any grade): 2 (3) number of patients (percent)
Erysipelas (any grade): 1 (2) number of patients (percent)
Fatigue (any grade): 12 (20) number of patients (percent)
Frequent bowel movements (any grade): 1 (2) number of patients (percent)
Gingival bleeding (any grade): 3 (5) number of patients (percent)
Headache (any grade): 7 (12) number of patients (percent)
Heavy menstrual bleeding (any grade): 2 (3) number of patients (percent)
Hypoesthesia (any grade): 1 (2) number of patients (percent)
Hypophosphatemia (any grade): 2 (3) number of patients (percent)
I lot flush (any grade): 1 (2) number of patients (percent)
Ilypokalemia (any grade): 1 (2) number of patients (percent)
Increased white blood cell count (any grade): 1 (2) number of patients (percent)
Maculo-papular rash (any grade): 1 (2) number of patients (percent)
Malaise (any grade): 1 (2) number of patients (percent)
Micturition urgency (any grade): 1 (2) number of patients (percent)
Muscle spasms (any grade): 2 (3) number of patients (percent)
Myalgia (any grade): 1 (2) number of patients (percent)
Nasal congestion (any grade): 2 (3) number of patients (percent)
Nasopharyngitis (any grade): 3 (5) number of patients (percent)
Nausea (any grade): 21 (35) number of patients (percent)
Peripheral swelling (any grade): 3 (5) number of patients (percent)
Petechiae (any grade): 4 (7) number of patients (percent)
Pruritus (any grade): 2 (3) number of patients (percent)
Purpura (any grade): 2 (3) number of patients (percent)
Rash (any grade): 3 (5) number of patients (percent)
Thrombocytopena (any grade): 2 (3) number of patients (percent)
Upper abdominal pain (any grade): 3 (5) number of patients (percent)
Upper respiratory tract infection (any grade): 3 (5) number of patients (percent)
Urinary tract infection (any grade): 2 (3) number of patients (percent)
Vomiting (any grade): 4 (7) number of patients (percent)
Abdominal discomfort (grade 1): 1 (2) number of patients (percent)
Abdominal distension (grade 1): 6 (10) number of patients (percent)
Abdominal pain (grade 1): 1 (2) number of patients (percent)
Abnormal dreams (grade 1): 1 (2) number of patients (percent)
Akathisia (grade 1): 1 (2) number of patients (percent)
Alopecia (grade 1): 2 (3) number of patients (percent)
Anemia (grade 1): — (represents zero events)
Any TEAE (grade 1): 43 (72) number of patients (percent)
Arthralgia (grade 1): 3 (5) number of patients (percent)
Arthropod bite (grade 1): 3 (5) number of patients (percent)
Back pain (grade 1): 7 (12) number of patients (percent)
Conjunctival hemorrhage (grade 1): 5 (8) number of patients (percent)
Contusion (grade 1): 7 (12) number of patients (percent)
Costochondritis (grade 1): 2 (3) number of patients (percent)
Cough (grade 1): 2 (3) number of patients (percent)
Decreased appetite (grade 1): 1 (2) number of patients (percent)
Defecation urgency (grade 1): — (represents zero events)
Diarrhea (grade 1): 19 (32) number of patients (percent)
Dizziness (grade 1): 2 (3) number of patients (percent)
Dyspepsia (grade 1): 3 (5) number of patients (percent)
Dyspnea (grade 1): 2 (3) number of patients (percent)
Dyspnea exertional (grade 1): 2 (3) number of patients (percent)
Edema (grade 1): 2 (3) number of patients (percent)
Epigastric discomfort (grade 1): — (represents zero events)
Epistaxis (grade 1): 2 (3) number of patients (percent)
Erysipelas (grade 1): — (represents zero events)
Fatigue (grade 1): 10 (17) number of patients (percent)
Frequent bowel movements (grade 1): — (represents zero events)
Gingival bleeding (grade 1): 3 (5) number of patients (percent)
Headache (grade 1): 7 (12) number of patients (percent)
Heavy menstrual bleeding (grade 1): 1 (2) number of patients (percent)
Hypoesthesia (grade 1): — (represents zero events)
Hypophosphatemia (grade 1): — (represents zero events)
I lot flush (grade 1): — (represents zero events)
Ilypokalemia (grade 1): 1 (2) number of patients (percent)
Increased white blood cell count (grade 1): — (represents zero events)
Maculo-papular rash (grade 1): 1 (2) number of patients (percent)
Malaise (grade 1): 1 (2) number of patients (percent)
Micturition urgency (grade 1): 1 (2) number of patients (percent)
Muscle spasms (grade 1): 2 (3) number of patients (percent)
Myalgia (grade 1): 1 (2) number of patients (percent)
Nasal congestion (grade 1): 1 (2) number of patients (percent)
Nasopharyngitis (grade 1): 2 (3) number of patients (percent)
Nausea (grade 1): 18 (30) number of patients (percent)
Peripheral swelling (grade 1): 3 (5) number of patients (percent)
Petechiae (grade 1): 4 (7) number of patients (percent)
Pruritus (grade 1): 1 (2) number of patients (percent)
Purpura (grade 1): 2 (3) number of patients (percent)
Rash (grade 1): 1 (2) number of patients (percent)
Thrombocytopena (grade 1): — (represents zero events)
Upper abdominal pain (grade 1): 2 (3) number of patients (percent)
Upper respiratory tract infection (grade 1): 2 (3) number of patients (percent)
Urinary tract infection (grade 1): 1 (2) number of patients (percent)
Vomiting (grade 1): 3 (5) number of patients (percent)
Abdominal discomfort (grade 2): — (represents zero events)
Abdominal distension (grade 2): — (represents zero events)
Abdominal pain (grade 2): 2 (3) number of patients (percent)
Abnormal dreams (grade 2): — (represents zero events)
Akathisia (grade 2): — (represents zero events)
Alopecia (grade 2): — (represents zero events)
Anemia (grade 2): 2 (3) number of patients (percent)
Any TEAE (grade 2): 30 (50) number of patients (percent)
Arthralgia (grade 2): 2 (3) number of patients (percent)
Arthropod bite (grade 2): — (represents zero events)
Back pain (grade 2): 1 (2) number of patients (percent)
Conjunctival hemorrhage (grade 2): — (represents zero events)
Contusion (grade 2): 3 (5) number of patients (percent)
Costochondritis (grade 2): — (represents zero events)
Cough (grade 2): — (represents zero events)
Decreased appetite (grade 2): — (represents zero events)
Defecation urgency (grade 2): 1 (2) number of patients (percent)
Diarrhea (grade 2): 3 (5) number of patients (percent)
Dizziness (grade 2): — (represents zero events)
Dyspepsia (grade 2): 1 (2) number of patients (percent)
Dyspnea (grade 2): — (represents zero events)
Dyspnea exertional (grade 2): — (represents zero events)
Edema (grade 2): — (represents zero events)
Epigastric discomfort (grade 2): 1 (2) number of patients (percent)
Epistaxis (grade 2): — (represents zero events)
Erysipelas (grade 2): 1 (2) number of patients (percent)
Fatigue (grade 2): 2 (3) number of patients (percent)
Frequent bowel movements (grade 2): 1 (2) number of patients (percent)
Headache (grade 2): — (represents zero events)
Heavy menstrual bleeding (grade 2): 1 (2) number of patients (percent)
Hypoesthesia (grade 2): 1 (2) number of patients (percent)
Hypophosphatemia (grade 2): 2 (3) number of patients (percent)
I lot flush (grade 2): 1 (2) number of patients (percent)
Ilypokalemia (grade 2): — (represents zero events)
Increased white blood cell count (grade 2): 1 (2) number of patients (percent)
Maculo-papular rash (grade 2): — (represents zero events)
Malaise (grade 2): — (represents zero events)
Micturition urgency (grade 2): — (represents zero events)
Muscle spasms (grade 2): — (represents zero events)
Myalgia (grade 2): — (represents zero events)
Nasal congestion (grade 2): 1 (2) number of patients (percent)
Nasopharyngitis (grade 2): 1 (2) number of patients (percent)
Nausea (grade 2): 3 (5) number of patients (percent)
Peripheral swelling (grade 2): — (represents zero events)
Petechiae (grade 2): — (represents zero events)
Pruritus (grade 2): 1 (2) number of patients (percent)
Purpura (grade 2): — (represents zero events)
Rash (grade 2): 2 (3) number of patients (percent)
Thrombocytopena (grade 2): — (represents zero events)
Upper abdominal pain (grade 2): 1 (2) number of patients (percent)
Upper respiratory tract infection (grade 2): 1 (2) number of patients (percent)
Urinary tract infection (grade 2): 1 (2) number of patients (percent)
Vomiting (grade 2): 1 (2) number of patients (percent)
Abdominal discomfort (grade 3/4): — (represents zero events)
Abdominal distension (grade 3/4): — (represents zero events)
Abdominal pain (grade 3/4): — (represents zero events)
Abnormal dreams (grade 3/4): — (represents zero events)
Akathisia (grade 3/4): — (represents zero events)
Alopecia (grade 3/4): — (represents zero events)
Anemia (grade 3/4): 2 (3) number of patients (percent)
Arthralgia (grade 3/4): — (represents zero events)
Arthropod bite (grade 3/4): — (represents zero events)
Back pain (grade 3/4): — (represents zero events)
Conjunctival hemorrhage (grade 3/4): — (represents zero events)
Contusion (grade 3/4): 1 (2) number of patients (percent)
Costochondritis (grade 3/4): — (represents zero events)
Cough (grade 3/4): — (represents zero events)
Decreased appetite (grade 3/4): — (represents zero events)
Defecation urgency (grade 3/4): — (represents zero events)
Diarrhea (grade 3/4): — (represents zero events)
Dizziness (grade 3/4): — (represents zero events)
Dyspepsia (grade 3/4): — (represents zero events)
Dyspnea (grade 3/4): — (represents zero events)
Dyspnea exertional (grade 3/4): — (represents zero events)
Edema (grade 3/4): — (represents zero events)
Epigastric discomfort (grade 3/4): — (represents zero events)
Epistaxis (grade 3/4): — (represents zero events)
Erysipelas (grade 3/4): — (represents zero events)
Fatigue (grade 3/4): — (represents zero events)
Frequent bowel movements (grade 3/4): — (represents zero events)
Headache (grade 3/4): — (represents zero events)
Heavy menstrual bleeding (grade 3/4): — (represents zero events)
Hypoesthesia (grade 3/4): — (represents zero events)
Hypophosphatemia (grade 3/4): — (represents zero events)
I lot flush (grade 3/4): — (represents zero events)
Ilypokalemia (grade 3/4): — (represents zero events)
Increased white blood cell count (grade 3/4): — (represents zero events)
Maculo-papular rash (grade 3/4): — (represents zero events)
Malaise (grade 3/4): — (represents zero events)
Micturition urgency (grade 3/4): — (represents zero events)
Muscle spasms (grade 3/4): — (represents zero events)
Myalgia (grade 3/4): — (represents zero events)
Nasal congestion (grade 3/4): — (represents zero events)
Nasopharyngitis (grade 3/4): — (represents zero events)
Nausea (grade 3/4): — (represents zero events)
Peripheral swelling (grade 3/4): — (represents zero events)
Petechiae (grade 3/4): — (represents zero events)
Pruritus (grade 3/4): — (represents zero events)
Purpura (grade 3/4): — (represents zero events)
Rash (grade 3/4): — (represents zero events)
Thrombocytopena (grade 3/4): 2 (3) number of patients (percent)
Upper abdominal pain (grade 3/4): — (represents zero events)
Upper respiratory tract infection (grade 3/4): — (represents zero events)
Urinary tract infection (grade 3/4): — (represents zero events)
Vomiting (grade 3/4): — (represents zero events)
Rescue medication use (all patients): seven
grade 3 anemia (any cause, unrelated to rilzabrutinib treatment): 2 n
grade 3 abnormal alanine aminotransferase levels [2]: one each
grade 3 contusion [2]: one each
grade 3 gastrointestinal hemorrhage [2]: one each
grade 3 hematoma [2]: one each
grade 3 immune thrombocytopenia [2]: one each
grade 3 myelofibrosis [2]: one each
grade 3 thrombocytopenia [2]: one each
grade 4 Evans syndrome [2]: one each
grade 4 thrombocytopenia [2]: one each
≥1 treatment-related, treatment-emergent adverse event (any grade): 52%
grade 3, 4, or 5 bleeding events (IBLS Bleeding Scale) (baseline or week 24/EOS, n=34): no grade 3, 4, or 5 bleeding events
IBLS bleeding scale scores within each domain [3]: no increase in bleeding from baseline through the end of treatment
IBLS bleeding scale scores, skin and oral sites [3]: improved at skin and oral sites
